Measured values published in patent publication US20100061928A1, “LABELLED ANALOGUES OF HALOBENZAMIDES AS RADIOPHARMACEUTICALS” (Institut National De La Sante et De La Recherche Medicale …, priority 2006, published 2010).
Structures can show the parent of a compound that is named as a salt. Values belong to the molecule of their own block, whether it stands above or below them.

How the values were obtained:
[1] = Elimination of the molecules: cumulative urinary and faecal excretion 0-72 hours; type: in vivo, mouse; details: for Faecal elimination 0-72 hours (Faeces) / Urinary and faecal elimination 0-72 hours (Total) / Urinary elimination 0-72 hours (Urine): cumulative excretion 0-72 hours; for Faecal elimination 0-72 hours (Faeces) / Urinary elimination 0-72 hours (Urine): mice in metabolic cages; for Urinary and faecal elimination 0-72 hours (Total): urine + faeces
[2] = system: tumour; experiment: Dosimetry with regard to the tumour (MIRD programme, extrapolated to ^131I); details: for Effective period: extrapolated to 131I labelling; for Biological period: from biodistribution data
[3] = system: grafted B16 F0 murine melanoma tumour; experiment: Biodistribution of the ^125I-labelled molecules in the melanoma-bearing mouse (autoradiography of whole-body sections); details: for Biodistribution, Mean, B 16: B 16 tumour; for tumour concentration, times higher than with BZA: at 72 hours (FIG. 1B); for tumour concentration, % of the injected dose per gram of tumour: from the first hour

SMILES: CCN(CC)CCNC(=O)c1cnc2cc(I)ccc2n1.Cl.Cl [compound 46, N-(2-diethylaminoethyl)-6-iodoquinoxaline-2-carboxamide dihydrochloride]
Faecal elimination 0-72 hours (Faeces) [1]: 18.0%
Urinary and faecal elimination 0-72 hours (Total) [1]: 88.2%
Urinary elimination 0-72 hours (Urine) [1]: 70.2%
elimination route (in words) ([1]; urinary versus faecal, 0-72 hours): predominantly in the urine
Effective period [2]: 49.3 h
Biological period [2]: 66.1 hours
Biodistribution, Mean, B 16 ([3]; 1 H): 17.00
Biodistribution, Mean, B 16 ([3]; 3 H): 27.68
Biodistribution, Mean, B 16 ([3]; 6 H): 40.70
Biodistribution, Mean, B 16 ([3]; 24 H): 21.67
Biodistribution, Mean, B 16 ([3]; 72 H): 12.45
Biodistribution, Mean, BM ([3]; BM, 1 H): 4.58
Biodistribution, Mean, GB ([3]; 6 H): 33.38
Biodistribution, Mean, Ic ([3]; 1 H): 15.22
Biodistribution, Mean, Ic ([3]; 3 H): 14.63
Biodistribution, Mean, Ic ([3]; 6 H): 17.45
Biodistribution, Mean, Sc ([3]; 1 H): 24.33
Biodistribution, Mean, Sc ([3]; 3 H): 20.33
Biodistribution, Mean, Sc ([3]; 6 H): 21.09
Biodistribution, Mean, Sc ([3]; 72 H): 2.23
tumour concentration, times higher than with BZA [3]: 16 times
Biodistribution, Mean, blood ([3]; 1 H): 3.45
Biodistribution, Mean, blood ([3]; 3 H): 2.91
Biodistribution, Mean, blood ([3]; 6 H): 3.09
Biodistribution, Mean, brain ([3]; 1 H): 2.34
Biodistribution, Mean, brain ([3]; 3 H): 1.03
tumour concentration, % of the injected dose per gram of tumour [3]: 17 % ID/g
Biodistribution, Mean, kidney ([3]; 1 H): 16.46
Biodistribution, Mean, kidney ([3]; 3 H): 9.30
Biodistribution, Mean, kidney ([3]; 6 H): 7.69
Biodistribution, Mean, liver ([3]; 1 H): 13.18
Biodistribution, Mean, liver ([3]; 3 H): 8.87
Biodistribution, Mean, liver ([3]; 6 H): 7.53
Biodistribution, Mean, liver ([3]; 24 H): 1.49
Biodistribution, Mean, lungs ([3]; 1 H): 7.83
Biodistribution, Mean, lungs ([3]; 3 H): 5.68
Biodistribution, Mean, lungs ([3]; 6 H): 4.46
Biodistribution, Mean, muscle ([3]; 1 H): 2.04
Biodistribution, Mean, muscle ([3]; 3 H): 0.86
Biodistribution, Mean, muscle ([3]; 6 H): 0.87
Biodistribution, Mean, pancreas ([3]; 1 H): 7.60
Biodistribution, Mean, spleen ([3]; 1 H): 14.21
Biodistribution, Mean, spleen ([3]; 3 H): 4.69
Biodistribution, Mean, thyroid ([3]; 3 H): 39.76
Biodistribution, Mean, thyroid ([3]; 6 H): 83.77
Biodistribution, Mean, thyroid ([3]; 24 H): 94.22
Biodistribution, Mean, uvea ([3]; 1 H): 33.82
Biodistribution, Mean, uvea ([3]; 3 H): 24.79
Biodistribution, Mean, uvea ([3]; 6 H): 32.30
Biodistribution, Mean, uvea ([3]; 24 H): 32.44
Biodistribution, Mean, uvea ([3]; 72 H): 25.26

Faecal elimination 0-72 hours (Faeces) [1]: 19.9%
Urinary and faecal elimination 0-72 hours (Total) [1]: 87.1%
Urinary elimination 0-72 hours (Urine) [1]: 67.2%
Effective period [2]: 51.2 h
Biological period [2]: 69.7 hours
Biodistribution, Mean, B 16 ([3]; 1 H): 19.07
Biodistribution, Mean, B 16 ([3]; 3 H): 20.34
Biodistribution, Mean, B 16 ([3]; 6 H): 27.38
Biodistribution, Mean, B 16 ([3]; 24 H): 18.28
Biodistribution, Mean, B 16 ([3]; 72 H): 10.86
Biodistribution, Mean, GB ([3]; 3 H): 50.82
Biodistribution, Mean, GB ([3]; 6 H): 55.80
Biodistribution, Mean, Ic ([3]; 1 H): 24.45
Biodistribution, Mean, Ic ([3]; 3 H): 23.54
Biodistribution, Mean, Ic ([3]; 6 H): 26.72
Biodistribution, Mean, Ic ([3]; 24 H): 1.21
Biodistribution, Mean, Sc ([3]; 1 H): 25.53
Biodistribution, Mean, Sc ([3]; 3 H): 24.89
Biodistribution, Mean, Sc ([3]; 6 H): 22.21
Biodistribution, Mean, Sc ([3]; 24 H): 2.16
tumour concentration, times higher than with BZA [3]: 14 times
Biodistribution, Mean, blood ([3]; 1 H): 3.31
Biodistribution, Mean, blood ([3]; 3 H): 3.47
Biodistribution, Mean, blood ([3]; 6 H): 2.50
tumour concentration, % of the injected dose per gram of tumour [3]: 19.1 % ID/g
Biodistribution, Mean, kidney ([3]; 1 H): 18.29
Biodistribution, Mean, kidney ([3]; 3 H): 13.10
Biodistribution, Mean, kidney ([3]; 6 H): 7.98
Biodistribution, Mean, liver ([3]; 1 H): 13.79
Biodistribution, Mean, liver ([3]; 3 H): 7.77
Biodistribution, Mean, liver ([3]; 6 H): 3.89
Biodistribution, Mean, lungs ([3]; 1 H): 8.33
Biodistribution, Mean, lungs ([3]; 3 H): 6.88
Biodistribution, Mean, lungs ([3]; 6 H): 3.34
Biodistribution, Mean, muscle ([3]; 1 H): 2.00
Biodistribution, Mean, muscle ([3]; 3 H): 1.41
Biodistribution, Mean, muscle ([3]; 6 H): 0.45
Biodistribution, Mean, pancreas ([3]; 1 H): 21.47
Biodistribution, Mean, pancreas ([3]; 3 H): 9.71
Biodistribution, Mean, spleen ([3]; 1 H): 18.88
Biodistribution, Mean, spleen ([3]; 3 H): 16.71
Biodistribution, Mean, thyroid ([3]; 1 H): 28.75
Biodistribution, Mean, thyroid ([3]; 3 H): 125.51
Biodistribution, Mean, thyroid ([3]; 6 H): 16.38
Biodistribution, Mean, thyroid ([3]; 72 H): 53.26
Biodistribution, Mean, uvea ([3]; 1 H): 21.04
Biodistribution, Mean, uvea ([3]; 3 H): 31.76
Biodistribution, Mean, uvea ([3]; 6 H): 28.78
Biodistribution, Mean, uvea ([3]; 24 H): 19.22
Biodistribution, Mean, uvea ([3]; 72 H): 19.78
SMILES: CCCN(CCC)CCCCNC(=O)c1ccc2cc(I)ccc2n1 [compound 49, N-(4-dipropylaminobutyl)-6-iodoquinoline-2-carboxamide dihydrochloride]
